Structures are written as SMILES. Active and inactive are the calls of the source. No rule for the calls is given here.

The values that follow come from PubChem BioAssay AID1259407 (Chemical Carcinogenesis Research Information System (CCRIS), 2018).

The series deals with CCRIS mutagenicity, Ames/micronucleus/aberration tests. Put plainly: CCRIS mutagenicity studies.
[1] abbreviates: Test System: AMES SALMONELLA TYPHIMURIUM, Strain/Indicator: TA98, Metabolic Activation: NONE, Method: PREINCUBATION
The mark [2] stands for this setting: Test System: AMES SALMONELLA TYPHIMURIUM, Strain/Indicator: TA100, Metabolic Activation: NONE, Method: PREINCUBATION
Where [3] appears, read: Test System: AMES SALMONELLA TYPHIMURIUM, Strain/Indicator: TA100, Metabolic Activation: RAT, LIVER, S-9, AROCLOR 1254, Method: PREINCUBATION
[4] abbreviates: Test System: AMES SALMONELLA TYPHIMURIUM, Strain/Indicator: TA1535, Metabolic Activation: NONE, Method: PREINCUBATION
[5] abbreviates: Test System: AMES SALMONELLA TYPHIMURIUM, Strain/Indicator: TA98, Metabolic Activation: NONE, Method: STANDARD PLATE.
The mark [6] stands for this setting: Test System: AMES SALMONELLA TYPHIMURIUM, Strain/Indicator: TA98, Metabolic Activation: RAT, LIVER, S-9, AROCLOR 1254, Method: STANDARD PLATE.
[7] abbreviates: Test System: AMES SALMONELLA TYPHIMURIUM, Strain/Indicator: TA100, Metabolic Activation: NONE, Method: STANDARD PLATE.
[8] abbreviates: Test System: AMES SALMONELLA TYPHIMURIUM, Strain/Indicator: TA100, Metabolic Activation: RAT, LIVER, S-9, AROCLOR 1254, Method: STANDARD PLATE.

With `Oc1cc(O)c2c(c1)O[C@H](c1cc(O)c(O)c(O)c1)[C@H](O)C2`, the mutagenic call runs as follows: (End Point: In vitro chromosomal aberrations, Test System: Chinese hamster (CHL/IU) cells, Metabolic Activation: None) “active; positive (structural changes: gaps, breaks, aberrations)”; (Test System: Ames Salmonella typhimurium, Strain/Indicator: TA102, Metabolic Activation: None, Method: Preincubation) “inactive; negative”; (Test System: Ames Salmonella typhimurium, Strain/Indicator: TA102, Metabolic Activation: Rat, Liver, S-9, Aroclor 1254 in 0.154 M KCl, Method: Preincubation) “inactive; negative”; (Test System: E. coli, Strain/Indicator: WP2 uvrA/pKM101, Metabolic Activation: None, Method: Preincubation) “inactive; negative”.

For the molecule `Oc1ccc(-c2ccc(O)cc2)cc1`, the mutagenic call was “inactive; negative” (Test System: AMES SALMONELLA TYPHIMURIUM, Strain/Indicator: TA97, Metabolic Activation: NONE, Method: PREINCUBATION); “inactive; negative” (Test System: AMES SALMONELLA TYPHIMURIUM, Strain/Indicator: TA97, Metabolic Activation: RAT, LIVER, S-9, AROCLOR 1254, Method: PREINCUBATION); “inactive; negative” under setting [1]; “inactive; negative” (Test System: AMES SALMONELLA TYPHIMURIUM, Strain/Indicator: TA98, Metabolic Activation: RAT, LIVER, S-9, AROCLOR 1254, Method: PREINCUBATION); “inactive; negative” under setting [2]; “inactive; negative” under setting [3]. Further, the mutagenic call is “inactive; negative” (Test System: AMES SALMONELLA TYPHIMURIUM, Strain/Indicator: TA102, Metabolic Activation: NONE, Method: PREINCUBATION); “inactive; negative” (Test System: AMES SALMONELLA TYPHIMURIUM, Strain/Indicator: TA102, Metabolic Activation: RAT, LIVER, S-9, AROCLOR 1254, Method: PREINCUBATION); “inactive; negative” (Test System: AMES SALMONELLA TYPHIMURIUM, Strain/Indicator: TA104, Metabolic Activation: NONE, Method: PREINCUBATION); “inactive; negative” (Test System: AMES SALMONELLA TYPHIMURIUM, Strain/Indicator: TA104, Metabolic Activation: RAT, LIVER, S-9, AROCLOR 1254, Method: PREINCUBATION); “inactive; negative” under setting [4]; “inactive; negative” (Test System: AMES SALMONELLA TYPHIMURIUM, Strain/Indicator: TA1535, Metabolic Activation: RAT, LIVER, S-9, AROCLOR 1254, Method: PREINCUBATION). Also, the mutagenic call (Test System: CHINESE HAMSTER V-79, Strain/Indicator: V-79/6-THIOGUANINE, Metabolic Activation: NONE) is “inactive; negative”.

For `Oc1ccc2c3cc4ccccc4cc3c3ccccc3c2c1O`, the mutagenic call under setting [3] is “active; positive”.

Regarding `O=C(c1ccccc1)C1OC1c1ccc(-c2ccccc2)cc1` (stereo unspecified), the mutagenic call under setting [5] is “inactive; negative”, the mutagenic call under setting [6] was “inactive; negative”, the mutagenic call under setting [7] was “inactive; negative” and the mutagenic call under setting [8] is “inactive; negative”.

Regarding `Clc1nc2ccccc2nc1Cl`, the mutagenic call runs as follows: (Test System: AMES SALMONELLA TYPHIMURIUM, Strain/Indicator: TA98, Metabolic Activation: HAMSTER, LIVER, S-9, AROCLOR 1254 (10%), Method: PREINCUBATION) “inactive; negative”; (Test System: AMES SALMONELLA TYPHIMURIUM, Strain/Indicator: TA98, Metabolic Activation: HAMSTER, LIVER, S-9, AROCLOR 1254, Method: STANDARD PLATE) “inactive; negative”; under setting [1], “inactive; negative”; under setting [5], “inactive; negative”; (Test System: AMES SALMONELLA TYPHIMURIUM, Strain/Indicator: TA98, Metabolic Activation: RAT, LIVER, S-9, AROCLOR 1254 (10%), Method: PREINCUBATION) “inactive; negative”; under setting [6], “inactive; negative”. Moreover, the mutagenic call by setting is: (Test System: AMES SALMONELLA TYPHIMURIUM, Strain/Indicator: TA100, Metabolic Activation: HAMSTER, LIVER, S-9, AROCLOR 1254 (10%), Method: PREINCUBATION) “inactive; negative”; (Test System: AMES SALMONELLA TYPHIMURIUM, Strain/Indicator: TA100, Metabolic Activation: HAMSTER, LIVER, S-9, AROCLOR 1254, Method: STANDARD PLATE) “inactive; negative”; under setting [2], “inactive; negative”; under setting [7], “inactive; negative”; (Test System: AMES SALMONELLA TYPHIMURIUM, Strain/Indicator: TA100, Metabolic Activation: RAT, LIVER, S-9, AROCLOR 1254 (10%), Method: PREINCUBATION) “inactive; negative”; under setting [8], “inactive; negative”. Further, the mutagenic call is “inactive; negative” (Test System: AMES SALMONELLA TYPHIMURIUM, Strain/Indicator: TA1535, Metabolic Activation: HAMSTER, LIVER, S-9, AROCLOR 1254 (10%), Method: PREINCUBATION); “inactive; negative” (Test System: AMES SALMONELLA TYPHIMURIUM, Strain/Indicator: TA1535, Metabolic Activation: HAMSTER, LIVER, S-9, AROCLOR 1254, Method: STANDARD PLATE); “inactive; negative” under setting [4]; “inactive; negative” (Test System: AMES SALMONELLA TYPHIMURIUM, Strain/Indicator: TA1535, Metabolic Activation: NONE, Method: STANDARD PLATE); “inactive; negative” (Test System: AMES SALMONELLA TYPHIMURIUM, Strain/Indicator: TA1535, Metabolic Activation: RAT, LIVER, S-9, AROCLOR 1254 (10%), Method: PREINCUBATION); “inactive; negative” (Test System: AMES SALMONELLA TYPHIMURIUM, Strain/Indicator: TA1535, Metabolic Activation: RAT, LIVER, S-9, AROCLOR 1254, Method: STANDARD PLATE). In addition, the mutagenic call is “inactive; negative” (Test System: AMES SALMONELLA TYPHIMURIUM, Strain/Indicator: TA1537, Metabolic Activation: HAMSTER, LIVER, S-9, AROCLOR 1254 (10%), Method: PREINCUBATION); “inactive; negative” (Test System: AMES SALMONELLA TYPHIMURIUM, Strain/Indicator: TA1537, Metabolic Activation: HAMSTER, LIVER, S-9, AROCLOR 1254, Method: STANDARD PLATE); “inactive; negative” (Test System: AMES SALMONELLA TYPHIMURIUM, Strain/Indicator: TA1537, Metabolic Activation: NONE, Method: PREINCUBATION); “inactive; negative” (Test System: AMES SALMONELLA TYPHIMURIUM, Strain/Indicator: TA1537, Metabolic Activation: NONE, Method: STANDARD PLATE); “inactive; negative” (Test System: AMES SALMONELLA TYPHIMURIUM, Strain/Indicator: TA1537, Metabolic Activation: RAT, LIVER, S-9, AROCLOR 1254 (10%), Method: PREINCUBATION); “inactive; negative” (Test System: AMES SALMONELLA TYPHIMURIUM, Strain/Indicator: TA1537, Metabolic Activation: RAT, LIVER, S-9, AROCLOR 1254, Method: STANDARD PLATE). Moreover, the mutagenic call by setting is: (Test System: AMES SALMONELLA TYPHIMURIUM, Strain/Indicator: TA1538, Metabolic Activation: HAMSTER, LIVER, S-9, AROCLOR 1254, Method: STANDARD PLATE) “inactive; negative”; (Test System: AMES SALMONELLA TYPHIMURIUM, Strain/Indicator: TA1538, Metabolic Activation: NONE, Method: STANDARD PLATE) “inactive; negative”; (Test System: AMES SALMONELLA TYPHIMURIUM, Strain/Indicator: TA1538, Metabolic Activation: RAT, LIVER, S-9, AROCLOR 1254, Method: STANDARD PLATE) “inactive; negative”; (Test System: MOUSE LYMPHOMA, Strain/Indicator: L5178Y (TK+/TK-), Metabolic Activation: NONE, Method: SUSPENSION/PLATE) “active; positive. reevaluation of results: equivocal”; (Test System: MOUSE LYMPHOMA, Strain/Indicator: L5178Y (TK+/TK-), Metabolic Activation: RAT, LIVER, S-9, AROCLOR 1254, Method: SUSPENSION/PLATE) “active; positive. reevaluation of results: positive”.
